We go through one compound from US12098135B2, “Aldoketo reductase inhibitors and uses thereof” (CASE WESTERN RESERVE UNIVERSITY, priority 2018, dated 2024).

The target in the test is T1, AKR1A1 (Homo sapiens, UniProt P14550).
T1 sequence (P14550 1-325): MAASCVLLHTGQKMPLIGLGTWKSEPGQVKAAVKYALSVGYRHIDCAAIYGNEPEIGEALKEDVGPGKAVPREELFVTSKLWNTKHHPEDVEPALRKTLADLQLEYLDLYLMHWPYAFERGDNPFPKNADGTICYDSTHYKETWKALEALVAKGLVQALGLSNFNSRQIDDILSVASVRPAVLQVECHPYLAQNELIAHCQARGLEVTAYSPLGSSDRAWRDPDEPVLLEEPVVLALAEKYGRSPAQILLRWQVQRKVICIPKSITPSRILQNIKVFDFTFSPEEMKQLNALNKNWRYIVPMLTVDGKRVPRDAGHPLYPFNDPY
Description: AKR activity measured using S-nitroso-Coenzyme A (SNO-CoA) as a substrate; selectivity for AKR1A1 versus AKR1B1. The test is classed as biochemical. An excerpt:
In some embodiments, the selectivity of the AKR inhibitor for AKR1A1 inhibition versus other AKRs, such as AKR1B1, can be measured using S-nitroso-Coenzyme A (SNO-CoA) as a substrate. In this instance where SNO-CoA is used as a substrate to measure AKR activity, the AKR inhibitor can have a selectivity for AKR1A1 versus AKR1B1 of ≥1 time, ≥2 times, ≥5 times, ≥10 times, ≥20 times, ≥30 times, ≥40 times, ≥50 times or more. By way of example, JSD-26-1, which is described in the example below, has an AKR1A1/AKR1B1 selectivity of at least 9. In some embodiments, the AKR inhibitor can have negligible inhibition of AKR1B1 activity of SNO-CoA, and particularly compared to AKR1A1 activity.

SMILES strings stand for the structures.

For the compound `O=C1NC(=O)C2(N1)c1ccccc1-c1ccc(C3CC3)cc12` (stereo not shown) [JSD-26-1], the AKR1A1/AKR1B1 selectivity entry is reported as “at least 9”.
